The source of these data is patent publication EP0917465B1, “ANTIMALARIAL AND ANTI-BABESIOSIS AGENTS AND PHARMACEUTICAL COMPOSITIONS CONTAINING THE SAME AGENTS” (priority 1996, dated 1998).

Read-outs that look alike come from different tables or passages of the source.

One series concerns Plasmodium falciparum. The series is described as follows: In vitro antimalarial activity, (3H) hypoxanthine incorporation in infected human erythrocytes (Desjardins test). To be noted: read-out: IC50 exprimée en micromoles. The format is cell-based. The source says: L'activité antipaludéenne des dérivés selon les exemples précédents est testée sur l'humain infesté par Plasmodium falciparum. Le produit à tester est mis en contact avec les érythrocytes humains infectés pendant 24 heures. Un précurseur radioactif d'acides nucléiques l'Hypoxanthine (^3H) est ensuite ajouté. Le précurseur ne s'incorpore que dans les cellules infectées par un parasite en croissance, c'est à dire dans les cellules que la drogue n'aura pas affectées.
L'aptitude ou non à incorporer le précurseur reflète donc la viabilité des cellules impaludées. La durée des tests est de 60 à 70 heures ( test de DESJARDINS R.E. , CANFIELD C.J., HATNES J.D. et CHULAY J.D., Antimicrob. Agents Chemother. 1979, 16, p 710-718 ). Les résultats sont consignés dans le tableau I ci-après, sous forme de IC50 (ou DE50), soit la concentration de produit dans le milieu expérimental capable d'inhiber in vitro la croissance du parasite d'une valeur de 50%.

In series [1] the test system is Babesia Bovis, Babesia Canis. Briefly: In vitro anti-Babesia activity, (3H) hypoxanthine incorporation. The format is cell-based. Particulars: read-out: Activité/ Babesia à 10 millimole. The source says: Le procédé de criblage d'activité anti-malaria, basé sur l'incorporation de l'(^3H) Hypoxanthine par le parasite, est utilisé pour tester l'activité anti-métabolique de tels composés sur Babesia Bovis, Babesia Canis. Une relation étroite est trouvée entre le taux d'incorporation de (^3H) Hypoxanthine dans une mesure standard et le pourcentage de cellules parasitées, déterminé par examen microscopique. Cette activité métabolique est quantifiée et évaluée dans le tableau ci-dessous par la cotation +++ pour les molécules affichant dans le test une inhibition de 50 % de l'incorporation de (^3H) Hypoxanthine (ID 50), ces molécules étant à une concentration inférieure ou égale à 0,01 Micromolaire. La cotation est de ++ pour la même activité à une concentration de 0,01 à 0.1 micromolaire et enfin de + pour une concentration inférieure ou égale à 1 Micromolaire.

Series [2] concerns Plasmodium vinckei, petteri, ou chabaudi. The series is described as follows: Therapeutic index in infected mice: 4-day Peters test activity versus semi-chronic toxicity (DL 50). The format is in vivo, souris Swiss mâles. Particulars: ratio of activity to toxicity under identical conditions, intraperitoneal or subcutaneous, twice a day for 4 days. An excerpt:
Afin d'évaluer l'index thérapeutique des divers produits, on a mesuré l'activité de ceux-ci dans un test in vivo et comparé à la toxicité aiguë chez l'animal . Cette activité est mesurée suivant le test décrit par PETERS W. ( Chemotherapy and Drug résistance in Malaria, 1970). Un composé est administré pendant quatre jours consécutifs à des souris préalablement impaludées par Plasmodium vinckei, petteri, ou chabaudi, ledit composé étant dissous dans une solution de NaCI à 0.9 %. Les préparations sont ainsi administrées par voie intrapéritonéale ou par voie sous-cutanée à des souris Swiss mâles infectées par voie IV, avec Plasmodium petterei ou Plasmodium chabaudi (10^6 cellules infectées ). Le composé est administré deux fois par jour pendant 4 jours consécutifs, la première injection étant pratiquée 2 heures après l'infestation et la deuxième, 10 heures après. La parasitémie est déterminée par un frottis, le jour suivant la fin du traitement. La toxicité est mesurée in vivo selon la même méthode, les animaux ayant reçu dans les conditions d'administration ci-dessus, 2 injections par jour pendant 4 jours ( toxicité semi chronique). Les résultats sont exprimés sous forme de DL 50, soit la dose ayant entraîné la mort de 50% des animaux.
Les résultats des essais sont résumés dans le tableau I ci-après sous forme d'index thérapeutique, soit le rapport de l'activité à la toxicité mésurées dans des conditions identiques comme décrit ci-dessus.

Where [3] appears, read: Plasmodium falciparum, Erythrocyte, concentration inhibiting in vitro parasite growth by 50 %, human erythrocytes infected with Plasmodium falciparum, 24 h contact, test lasts 60 to 70 h.
Setting [4] is: class of ID 50 for (3H) hypoxanthine incorporation.
Setting [5] is: concentration inhibiting in vitro parasite growth by 50 %, human erythrocytes infected with Plasmodium falciparum, 24 h contact, test lasts 60 to 70 h.
The mark [6] stands for this setting: Plasmodium falciparum, Erythrocyte.

For `CCC[N+](C)(CC)CCCCCCCCCCCCCC[N+](C)(CC)CCC` (stereo not drawn) [EXEMPLE1, N, N'-dimethyl-N, N'-diethyl-N, N'-dipropyl-1, 14 tetradecanediaminium, dibromure], the IC50 was 10 nM with Plasmodium falciparum (setting [3]) and 10 to 100 nM in series [1] (setting [4]).
In the case of `CCC[N+](C)(CC)CCCCCCCCCCCCCCC[N+](C)(CC)CCC` (stereo not drawn) [EXEMPLE 2, N,N'-dimethyl-N, N'-diethyl-N, N'-dipropyl-1, 15-pentadecanediaminium, dibromure], the results for the IC50 (in the series with Plasmodium falciparum (setting [3]); in series [1] (setting [4])) were 10 nM and 100 to 1000 nM, respectively.
On the same counts, the results for `CCC[N+](C)(CC)CCCCCCCCCCCCCCCC[N+](C)(CC)CCC` (stereo not drawn) [EXEMPLE 3, N.N'-dimethyl-N.N'-diethyl-N, N'-dipropyl-1,16-exadecanediaminium, dibromure] are 3 nM and 10 to 100 nM.
In the same order, the values of `CCC[N+](C)(CC)CCCCCCCCCCCCCCCCC[N+](C)(CC)CCC` (stereo not drawn) [EXEMPLE 4, N,N'-dimethyl-N, N'-diethyl-N, N'-dipropyl-1, 17-heptadecanediaminium, dibromure] are 2 nM and 10 to 100 nM.
In the same order, the values of `CCC[N+](C)(CC)CCCCCCCCCCCCCCCCCC[N+](C)(CC)CCC` (stereo not drawn) [EXEMPLE 5, N,N'-dimethyl-N,N'-diethyl-N,N'-dipropyl-1,18-octadecanediaminium, dibromure] are 1 nM and below 10 nM.
In the case of `CCC[N+](C)(CC)CCCCCCCCCCCCCCCCCCCC[N+](C)(CC)CCC` (stereo not drawn) [EXEMPLE 6, N, N'-dimethyl-N, N'-diethyl-N, N'-dipropyl-1,20-eicosanediaminium, dibromure], the IC50 was 3 nM in the series on Plasmodium falciparum (setting [3]) and 10 to 100 nM in series [1] (setting [4]).
As for `CCC[N+](C)(CC)CCCCCCCCCCCCCCCCCCCCCC[N+](C)(CC)CCC` (stereo not drawn) [EXEMPLE 7, N,N'-dimethyl-N, N'-diethyl-N, N'-dipropyl-1,22-Cosanediaminium, dibromure], the IC50 with Plasmodium falciparum (setting [3]) is 10 nM; in series [1] (setting [4]), 10 to 100 nM.
In the same order, the values of `CCC[N+](CCC)(CCC)CCCCCCCCCCCCCC[N+](CCC)(CCC)CCC` [EXEMPLE 8, N, N, N, N', N', N' hexapropyl-1, 14-tetradecanediaminium, dibromure] are 100 nM and 100 to 1000 nM.
With `CCC[N+](CCC)(CCC)CCCCCCCCCCCCCCCC[N+](CCC)(CCC)CCC` [EXEMPLE 9, N, N, N, N', N', N' hexapropyl-1, 16-hexadecanediaminium, dibromure], the IC50 was 7 nM in the series with Plasmodium falciparum (setting [5]) and below 10 nM in series [1] (setting [4]).
Take `CCC[N+](CCC)(CCC)CCCCCCCCCCCCCCCCCCCC[N+](CCC)(CCC)CCC` [EXEMPLE 10, N, N, N, N', N', N' hexapropyl-1,20-eicosanediaminium, dibromure]: the IC50 in the series with Plasmodium falciparum (setting [3]) is 700 nM; in series [1] (setting [4]) it was 100 to 1000 nM.
In the same order, the values of `CCC[N+](CCC)(CCC)CCCCCCCCCCCCCCCCCCCCCCCC[N+](CCC)(CCC)CCC` [EXEMPLE 11, N, N, N, N', N', N' hexapropyl-1,24-tetracosanediaminium, dibromure] are 1600 nM and 100 to 1000 nM.
For `CCC[N+](CCC)(CCC)CCCCCCCCCCCCCCCC[N+](CCC)(CCC)CCC` [EXEMPLE 12, N, N, N, N', N', N' hexapropyl-1,16-hexadecanediaminium, dibromure], the IC50 in the series with Plasmodium falciparum (setting [5]) was 1 nM; in series [1] (setting [4]) it was 10 to 100 nM.
For `CC[N+](C)(CC)CCCCCCCCCCCCCCCC[N+](C)(CC)CC` [EXEMPLE 13, N,N'-dimethyl-N,N,N',N'-tetraethyl-1,16-hexadecanediaminium, dibromure], the IC50 with Plasmodium falciparum (setting [3]) is 0.5 nM; in series [1] (setting [4]), below 10 nM.
Consider `CC[N+](C)(CC)CCCCCCCCCCCCCCCCCC[N+](C)(CC)CC` [EXEMPLE 14, N,N'-dimethyl-N,N,N',N'-tetraethyl-1,18 octadecanediaminium, dibromure], for which the “Index thérapeutique” value in series [2] amounted to 14. Also, the IC50 in the series with Plasmodium falciparum (setting [6]) is 0.04 nM; in series [1] it was below 10 nM.
In the case of `CC[N+](C)(CC)CCCCCCCCCCCCCCCCCCCCC[N+](C)(CC)CC` [EXEMPLE 15, N,N'-dimethyl-N,N,N',N'-tetraethyl-1,21-heneicosanediaminium, dibromure], the IC50 was 0.003 nM in the series with Plasmodium falciparum (setting [3]) and below 10 nM in series [1] (setting [4]).
Take `C[N+]1(CCCCCCCCCCCCCC[N+]2(C)CCCC2)CCCC1` [EXEMPLE 16, 1,1'-(1,14-tetradecanediyl) bis (1-methylpyrrolidinium) dibromure]: the “Index thérapeutique” value in series [2] worked out at 8. Moreover, the IC50 was 0.9 nM in the series on Plasmodium falciparum (setting [6]) and below 10 nM in series [1].
As for `C[N+]1(CCCCCCCCCCCCCCCC[N+]2(C)CCCC2)CCCC1` [EXEMPLE 17, 1,1-(1,16-hexadecanediyl) bis (1-methylpyrrolidinium) dibromure], the IC50 in the series on Plasmodium falciparum (Erythrocyte, concentration inhibiting in vitro parasite growth by 50 %, human erythrocytes infected with Plasmodium falciparum, 24 h contact, test lasts 60 to 70 h) was 0.6 nM; in series [1] (setting [4]), below 10 nM.
For the molecule `C[N+]1(CCCCCCCCCCCCCCCCCCCCCC[N+]2(C)CCCC2CO)CCCC1CO` (stereo not drawn) [EXEMPLE 19, 1,1'-(1,22-docosanediyl) bis (2-hydroxymethyl1-methylpyrrolidinium) dibromure], the IC50 was 70 nM in the series on Plasmodium falciparum (setting [3]) and 100 to 1000 nM in series [1] (setting [4]).
Regarding `C[N+]1(CCCCCCCCCCCCCCCC[N+]2(C)CCOCC2)CCOCC1` [EXEMPLE 21, 1,1'-(1.16-hexadecanediyl) bis (1-methylmorpholinium) dibromure], the IC50 with Plasmodium falciparum (setting [3]) was 1 nM; in series [1] (setting [4]), below 10 nM.
On the same counts, the results for `CCCCCCCCCCCC[N+](C)(C)CCCCCCCCCCCCCCCC[N+](C)(C)CCCCCCCCCCCC` [EXEMPLE 22, N,N'-didodecyl-N,N,N',N'-tetramethyl- 1,16 hexadecanediaminium dibromure] are 1000 nM and 10 to 100 nM.
On to `CCCCCCCCCCCC[N+](C)(C)CCCCCCCCCCCCCCCCCC[N+](C)(C)CCCCCCCCCCCC` [EXEMPLE 23], for which the figures for the IC50 (with Plasmodium falciparum (setting [3]); in series [1] (setting [4])) were 100 nM and 100 to 1000 nM, respectively.
On the same counts, the results for `C#CC[N+](C)(C)CCCCCCCCCCCCCC[N+](C)(C)CC#C` [EXEMPLE 24, N,N'-di (2-propynyl)-N,N,N',N'-tetramethyl-1,14-tetradecane diaminium dibromure] are 7 nM and 10 to 100 nM.
In the same order, the values of `CCC[N+](CCC)(CCO)CCCCCCCCCCCCCC[N+](CCC)(CCC)CCO` [EXEMPLE 27, N, N'-di-(2-hydroxyethyl) -N, N, N', N'-tetrapropyl-1, 14 tetradecane diaminium dibromure] are 10 nM and 10 to 100 nM.
On the same counts, the results for `CCC[N+](CCC)(CCCCCCCCCCCCCC[N+](CCC)(CCC)CCOCC)CCOCC` [EXEMPLE 28, N, N'-di-(2-ethoxyethyl)-N, N, N', N'-tetrapropyl-1, 14 tetradecanediaminium dibromure] are 10 nM and below 10 nM.
Regarding `CCC[N+](CCC)(CCO)CCCCCCCCCCCCCCCC[N+](CCC)(CCC)CCO` [EXEMPLE 29, N, N'-di-(2-hydroxyethyl) -N, N, N', N'-tetrapropyl-1, 1 6 hexadecane diaminium dibromure], the IC50 was 5 nM in the series on Plasmodium falciparum (setting [3]) and 10 to 100 nM in series [1] (setting [4]).
Consider `CCC[N+](CCC)(CCO)CCCCCCCCCCCCCCCCCCCC[N+](CCC)(CCC)CCO` [EXEMPLE 30, N, N'-di-(2-hydroxyethyl)-N, N, N', N'-tetrapropyl-1,20-eicosanediaminium dibromure], for which the IC50 in the series with Plasmodium falciparum (setting [3]) was 0.3 nM; in series [1] (setting [4]), below 10 nM.
